[ ]: non-standard residue; d: D form. pGlu = O=C1CC[C@@H](C(=O)O)N1
Tests used:
[1] = Open-label phase IIa clinical study: safety and tolerability; type: in vivo, human
Excerpt: The study outline is depicted in FIG. 3.

[2] = tested on: CD4+ and CD8+ T cells (PBMCs from a healthy donor); assay: MHC class I expression after stimulation of T cells with GnRH II (FIG. 1); type: cell-based, human; conditions: GnRH II and IL-2 for 72 hours, flow cytometry
Description: FIG. 1: Expression of MHC class I after stimulation of T cells with increasing concentrations of GnRH II. PBMCs from a healthy donor was stimulated with GnRH II and IL-2 for 72 hours. Data points represent mean fluorescent intensity of MCH class I expression on CD4^+ T cells (blue triangles) or CD8^+ T cells (black squares) measured with flow cytometry.

[3] = tested on: CD4+ T-lymphocytes; conditions: BB rats exhibiting an AIDS-like lymphocyte profile; cited from earlier work

CCNC(=O)[C@@H]1CCCN1C(=O)[C@H](CCCNC(=N)N)NC(=O)[C@H](CC(C)C)NC(=O)[C@@H](COC(C)(C)C)NC(=O)[C@H](Cc1ccc(O)cc1)NC(=O)[C@H](CO)NC(=O)[C@H](Cc1c[nH]c2ccccc12)NC(=O)[C@H](Cc1cnc[nH]1)NC(=O)[C@@H]1CCC(=O)N1 [buserelin acetate]
Any AE affecting impotence, % of patients ([1]; Safety (n = 26)): (23.1%)
Any AE affecting libido, % of patients ([1]; Safety (n = 26)): (30.8%)
Any AE leading to discontinuation, % of patients ([1]; Safety (n = 26)): (3.8%)
Any AE, % of patients ([1]; Safety (n = 26)): (100.0%)
Any SAE, % of patients ([1]; Safety (n = 26)): (0.0%)
Any treatment-related AE, % of patients ([1]; Safety (n = 26)): (65.4%)
Any treatment-related SAE, % of patients ([1]; Safety (n = 26)): (0.0%)
Death, % of patients ([1]; Safety (n = 26)): 0.0%
grading of adverse events ([1]; in words): All adverse events except one was graded as mild
overall safety and tolerability of the treatment ([1]; in words): safe and well-tolerated
serious adverse events (SAEs) during the study ([1]; in words): no serious adverse events

pyroGlu-His-Trp-Ser-His-Gly-Trp-Tyr-Pro-Gly-NH2 ([pGlu]HWSHGWYPG-NH2; SMILES NC(=O)CNC(=O)[C@@H]1CCCN1C(=O)[C@H](Cc1ccc(O)cc1)NC(=O)[C@H](Cc1c[nH]c2ccccc12)NC(=O)CNC(=O)[C@H](Cc1c[nH]cn1)NC(=O)[C@H](CO)NC(=O)[C@H](Cc1c[nH]c2ccccc12)NC(=O)[C@H](Cc1c[nH]cn1)NC(=O)[C@@H]1CCC(=O)N1) [GnRH II, second, non-hypothalamic form of GnRH]
MHC class I expression on T cells [2]: stimulates MHC class I expression

pyroGlu-His-Trp-Ser-Tyr-Gly-Leu-Arg-Pro-Gly-NH2 (EHWSYGLRPG; N-terminal pyroglutamate, C-terminal amide; printed: Glu-His-Trp-Ser-Tyr-Gly-Leu-Arg-Pro-Gly-) [GnRH I, decapeptide hormone]
CD4+ T-lymphocyte numbers [3]: increased

From US11672842B2, “Gonadotropin-releasing hormones for use as adjuvant immunotherapeutics” (ISR IMMUNE SYSTEM REGULATION HOLDING AB (PUBL), priority 2017, dated 2023)
